Experimental findings from US7423015B1, “Antihelminthic drugs as a treatment for hyperproliferative diseases” (Board of Regents, The University of Texas System, priority 2001, dated 2008) are described below.

For one test, the system named is A549 lung cancer cells. The test can be described thus: Apoptotic cells by TdT-FACS analysis. It counts as cell-based, human.
Test [1] deals with H1299 (p53 deleted), H322 (p53 mutated), H460 (wt p53) and A549 (wt p53) human lung cancer cell lines. The test can be described thus: 3-day growth assay with Ad5p53 and FZ. It counts as cell-based. On the procedure:
In those assays, growing, cultured cells were trypsinized and plated (10^4 cells/well) and then infected the next day with Ad5p53 at 1 MOI. Viral supernatant was then added, after which cells were incubated for 24 h, washed with PBS, fed fresh medium or incubated with medium containing FZ for 24 h, washed again, and fed fresh medium. In contrast, uninfected cells (controls) were treated with FZ for 24 h, washed with PBS, fed fresh medium, and then subjected to a 3-day growth assay (FIG. 4A).

Another test has as its system normal fibroblast. The test can be described thus: In vitro proliferation assay with MZ, cell count. In kind it is cell-based, human. Conditions: 24 h treatment. On the procedure:
Cells of the human non-small cell lung cancer (NSCLC) cell line A549, WI-38 normal fibroblast (American Type Culture Collection, Rockville, Md.) and H460 (a gift from Drs. Adi Gazdar and John Minna. University of Texas Southwestern Medical Center, Dallas) were seeded on culture plates (2×10^4 cells/well) in F12 and RPMI medium, respectively, supplemented with 10% heat-inactivated fetal calf serum and antibiotics. HUVEC were grown in medium supplemented with growth factor (Clonetics, San Diego). The cells were then exposed to MZ dissolved in dimethyl sulfoxide (DMSO) when grown to 40-50% confluence. Cell growth was monitored by counting the cells using a hemocytometer.
Initially, the inventors examined the effect of MZ on proliferation of human lung cancer cell lines (H460 and A549) in vitro.

The next test deals with H460 NSCLC cells. Put plainly: Cell cycle profiles by FACS, MZ and vinorelbine. In kind it is cell-based, human. On the procedure: FIG. 10. MZ Enhances activity of anti-mictotic drugs in H460 NSCLC cells. H460 cells were treated with low dose of MZ or Vinorelbine. Cell cycle profiles indicating G1/S G2-Mphases were analyzed by FACS.
The doses of MZ and vinorelbine were chosen to be “sub-therapeutic”. […] Thus, in H460 NSCLC cells mebendazole enhances the activity of anti-mitotic drugs.
Background: In flow cytometry, cells or beads pass a laser one at a time.

Test [2] relates to adenovirus expressed MDA-7. Put plainly: Adenovirus expressed MDA-7 levels. It counts as cell-based.
In test [3] the test system is Ad-luciferase transgene expression. Put plainly: Ad-luciferase transgene expression with or without MZ. Conditions: six cell lines, MZ at 50 ng/ml, 48 hours. It counts as cell-based. The protocol:
FIG. 8. Expression of Ad-luciferase in H1299 cells with and without MZ. H1299 cells were treated with media (UT) or Ad-luciferase at increasing multiplicities of infection, with or without MZ at 50 ng/ml. Forty-eight hours later, cells were harvested and luciferase activity assayed.
FIG. 9. Expression of Ad-luciferase in A549 cells with and without MZ. A549 cells were plated in 6-well dishes and either treated with media (UT) or Ad-luciferase at increasing multiplicities of infection, with or without MZ at 50 ng/ml. Forty-eight hours later, cells were harvested and luciferase activity assayed.
Next, a series of six cell lines were transfected with Ad-luciferase at increasing multiplicities of infection, with or without MZ at 50 ng/ml.

The subject of test [4] is HUVEC cell tube formation. Put plainly: HUVEC tube formation in conditioned medium. It counts as cell-based, human. From the text:
One of the most encouraging findings is that MZ inhibited the neovascularization in the human xenografts tested. […] The inventors have thus shown that MZ is a potent antiangiogeneic agent. It had no effect on endothelial cell growth, instead directly targeting tumor cells in vivo. MZ may be effective in the treatment of cancer and other angiogenesis-dependent diseases.

Procedure for A549 lung cancer cells: Approximately 10^4 cells were seeded on tissue culture plates 24 h before drug treatment or adenoviral infection. […] FIG. 4C—A549 lung cancer cells were examined for apoptotic cell death 48 h after FZ and Ad5p53 treatment alone or in combination. Percent apoptotic cells were measured by TdT-FACS analysis.
For TdT FACS analysis control and treated cells were collected by trypsinization, washed in PBS, and fixed overnight in 70% ethanol. The next day, cells were rehydrated in PBS for 30 min, centrifuged, and resuspended in PBS. For DNA analysis, propidium iodide (PI) was added at 50 μg/ml, and the cells were incubated in the presence of RNase A (15 mg/ml for 30 min at 37° C.). To detect DNA strand breaks associated with apoptosis, cells were fixed in 1% formaldehyde for 15 min at 4° C., rinsed in PBS, and stored at 4° C. in ice-cold 70% ethanol. Before staining, the cells were washed in PBS, and 10^6 cells were resuspended in 50 ml of cacodylated buffer containing 100 μ/ml TdT enzyme and 0.5 nM biotin-16 dUTP for 30 min at 37° C. Cells were washed in PBS and resuspended in 100 ml of 4×SSC containing 2.5 mg/ml fluoresceinated avidin, 0.1% Triton X-100, and 5% dry fat milk and then incubated at room temperature for 30 min in the dark. […] Flow cytometry was carried out in a fluorescence-activated cell sorter (Epics Elite; Coulter, Inc., Hialeah, Fla.).

In the case of `COC(=O)Nc1nc2ccc(Sc3ccccc3)cc2[nH]1` [Fenbendazole, methy 5-(phenylthio)-2-benzimidazole-2-carbamate], the apoptotic cells with A549 lung cancer cells (48 h after combination treatment FZ and Ad5p53) was 30%. The compound also showed an apoptotic cells with A549 lung cancer cells (FZ treatment alone) of 11%. In test [1] (0.05 μg/ml FZ for 24 h), the “cell growth after FZ alone, p53-mutated and deleted cells” value is given as “not growth inhibited”; the “growth inhibition after FZ alone, wt p53 H460 cells” value was “significantly so”. In addition, the “cell growth after Ad5p53 plus FZ” value in test [1] (Ad5p53-transduced cells (1 MOI, 24 h) treated with FZ for 24 h, all four cell lines, 3-days growth assay) is listed as “striking growth inhibition”.
As to `COC(=O)Nc1nc2ccc(C(=O)c3ccccc3)cc2[nH]1` [Mebendazole, Methyl 5-benzoylbenzimidazole-2-carbamate], the “effect on growth of normal fibroblast” value in the test on normal fibroblast is on record as “no effect”. For the same compound, in the test with H460 NSCLC cells (24-48 hr cultures), the “apoptosis (sub-G0 cells) under combination of MZ and vinorelbine” value is “pronounced apoptosis”. The “interaction of MZ combined with Vinorelbine” value in the test on H460 NSCLC cells (low doses of both drugs) is “synergistic interaction”. Also, the apoptosis under monotherapy entry with H460 NSCLC cells (sub-therapeutic low dose) is on record as “No apoptosis”. Also, in test [2], the “levels of adenovirus expressed MDA-7” value is “increased levels”. Also, in test [3], the transgene expression result was “significant increases”. In addition, the “HUVEC cell tube formation” value in test [4] is reported as “inhibited”.
